Holding throughout (format): cell-based
The test system of one series is IL-10. Put plainly: IL-10 secretion by TLRs-L-stimulated mouse whole spleen lymphocytes (ELISA). The conditions noted are these: Lymphocyte, 48 h. How it is done:
(§1) BALB/c mice were sacrificed by cervical dislocation, and spleens were aseptically excised to prepare whole spleen lymphocytes. The cells were adjusted to 5×10^6 cells/ml. Hydroxychloroquine sulfate was diluted with a 3-fold gradient into 3 concentrations starting from 30 μM: 30, 10 and 3 μM; naphthoquine phosphate was diluted with a 3-fold gradient into 3 concentrations starting from 10 μM: 10, 3 and 1 μM.
(§2) Mouse spleen lymphocytes were inoculated into a 96-well plate at 100 μl/well, and the stimulant TLR4-L (final concentration: 10 μg/ml), TLR7-L (final concentration: 5 μg/ml) or TLR9-L (final concentration: 1 μM) and the compounds diluted with the above concentration gradients were added. A corresponding stimulation control and a cell control (without stimulation) were set up. The cells were cultured in a 37° C., 5% CO2 incubator for 48 hours. After the end of the culture, the cell culture supernatants were collected, and the levels of IL-1β, IL-6, and IL-10 were measured by ELISA.
In general terms: ELISA stands for enzyme-linked immunosorbent assay.

The next series concerns IL-1β. Description: IL-1β secretion by TLRs-L-stimulated mouse whole spleen lymphocytes (ELISA). The settings on record: Lymphocyte, 48 h, read-out: IB-1β IC50. How it is done: as §1, §2
Another series deals with IgG. Put plainly: IgG secretion by TLRs-L-stimulated mouse whole spleen lymphocytes (ELISA). The settings on record: Lymphocyte, 120 h. How it is done:
as §1
Mouse spleen lymphocytes were inoculated into a 96-well plate at 100 μl/well, and the stimulant TLR4-L (final concentration: 10 μg/ml), TLR7-L (final concentration: 5 μg/ml) or TLR9-L (final concentration: 1 μM) and the compounds diluted with the above concentration gradients were added. A corresponding stimulation control and a cell control (without stimulation) were set up. The cells were cultured in a 37° C., 5% CO2 incubator for 120 hours. After the end of the culture, the cell culture supernatants were collected, and the levels of IgG and IgM were measured by ELISA.

The nature of series [1]: Cytotoxicity (CC50) on mouse whole spleen lymphocytes, Example 3. The settings on record: BALB/c; mouse whole spleen lymphocytes (Tables 3 and 4). How it is done:
as §1

Series [2] has as its system IL-6. Put plainly: IL-6 secretion by TLRs-L-stimulated mouse whole spleen lymphocytes (ELISA). The settings on record: Lymphocyte, 48 h. How it is done: as §1, §2
The test system of a further series is IgM. Description: IgM secretion by TLRs-L-stimulated purified mouse B cells (ELISA). The conditions noted are these: B-cell, 120 h, stimulant TLR4-L 10 μg/ml. How it is done:
(§3) BALB/c mice were sacrificed by cervical dislocation, and spleens were aseptically excised to prepare spleen lymphocytes. The cells were adjusted to 1×10^8 cells/ml, blocked with 2.4G2 (final concentration: 10 μg/ml) for 20 min, cultured with PE-CD19 (final concentration: 5 μg/ml) for 20 min, washed with MACS buffer, centrifuged at 4° C., 300G for 10 min, 100 μl anti-PE beads were added per 1×10^8 cells, incubated with 900 μl MACS buffer for 15 min, washed with MACS buffer, centrifuged at 4° C., 300G for 10 min. The supernatant was discarded. 500 μl MACS buffer was added per 1×10^8 cells to resuspend the cells. MACS column was used for separation. Magnetically labeled cells were retained on the column. The MACS column was removed from the magnetic field and then eluted.
A suspension of purified mouse B cells was inoculated into a 96-well plate at 4×10^5/well. Hydroxychloroquine sulfate was diluted with a 2-fold gradient into 3 concentrations, starting from 8 μM: 8, 4 and 2 μM. Naphthoquine phosphate was diluted with a 2-fold gradient into 3 concentrations starting from 0.5 μM.: 0.5, 0.25 and 0.125 μM. […] After the end of the culture, the cell culture supernatants were collected, and the levels of IgG and IgM were measured by ELISA.

Series [3] concerns IL-6. Description: IL-6 secretion by TLRs-L-stimulated purified mouse B cells (ELISA). The settings on record: B-cell, 48 h, stimulant TLR4-L 10 μg/ml. How it is done:
as §3
A suspension of purified mouse B cells was inoculated into a 96-well plate at 4×10^5/well. Hydroxychloroquine sulfate was diluted with a 2-fold gradient into 3 concentrations starting from 8 μM: 8, 4 and 2 μM. Naphthoquine phosphate was diluted with a 2-fold gradient into 3 concentrations 0.5 μM.: 0.5, 0.25 and 0.125 μM. […] After the end of the culture, the cell culture supernatants were collected, and the levels of TNF-α, IL-1β, and IL-6 were measured by ELISA.

Series [4] has as its system mouse whole spleen lymphocytes (LPS-induced B cell activation and proliferation). Description: LPS-induced lymphocyte proliferation assay (3H-thymidine). The conditions noted are these: for IC50: LPS 10 μg/ml, 48 hours, 3H-thymidine, read-out: LPS IC50. How it is done: BALB/c mice were sacrificed by cervical dislocation, and spleens were aseptically excised to prepare whole spleen lymphocytes. The cells were adjusted to the required concentration.
A suspension of mouse spleen lymphocytes was inoculated into a 96-well plate at 5×10^5/well, and ConA (final concentration: 1 μg/ml) or LPS (final concentration: 10 μg/ml) and the above 10 concentration gradients of the compound were added. Corresponding cell control wells without ConA and LPS, as well as medicament-free stimulated control wells, were set up. The cells were cultured in a 37° C., 5% CO2 incubator for 48 hours. Eight hours before the end of the culture, ^3H-thymidine was added, and the culture continued until the end of the experiment (i.e., the aforementioned 48 hours). The cells were collected onto glass fiber membranes using a cell collector.
ConA and LPS, as mitogens, stimulated proliferation and differentiation of T and B lymphocytes, respectively. This process is similar to the activation process of lymphocytes in vivo. Therefore, mitogen-induced lymphocyte proliferation is commonly used as an indicator to evaluate functionality of lymphocytes.

The values below come from US20250332154A1, “USE OF NAPHTHOQUINE PHOSPHATE IN PREPARATION OF A MEDICAMENT FOR TREATING AUTOIMMUNE DISEASES” (SHANGHAI PHARMACEUTICALS INDUSTRY CO., LTD, priority 2022, published 2025).

Structures can show the parent of a compound that is named as a salt. Where two headings read alike, the source gives them in different places.

For the molecule `CC(C)(C)NCc1cc(Nc2ccnc3cc(Cl)ccc23)c2c(c1O)CCCC2.O=P(O)(O)O.O=P(O)(O)O` [Naphthoquine Phosphate, Naphthoquine phosphate], the IC50 with IL-10 (stimulant TLR4-L 10 μg/ml) was 0.106 µM; in the series with IL-10 (stimulant TLR7-L 5 μg/ml) it was 0.039 µM; in the series with IL-10 (stimulant TLR9-L 1 μM) it was 0.19 µM; in the series on IL-1β (stimulant TLR4-L 10 μg/ml), 3.35 µM; in the series on IgG (stimulant TLR9-L 1 μM), 0.325 µM; in the series on IL-6 [2] (stimulant TLR4-L 10 μg/ml), 0.63 µM. For the same molecule, the IC50 was 0.007 µM in the series on IL-6 [2] (stimulant TLR7-L 5 μg/ml); 0.29 µM in the series with IL-6 [2] (stimulant TLR9-L 1 μM); 0.21 µM with IgM; 0.5 µM in the series on IL-6 [3]; 0.08 µM in series [4] (Mus musculus, Lymphocyte). Also, half-maximal cytotoxicity in series [1] (CC50) was put at 1.59 µM. Besides, the “effect on LPS-induced B cell activation and proliferation” value in series [4] (in words) is “significant inhibitory activity”.

On to `CCN(CCO)CCCC(C)Nc1ccnc2cc(Cl)ccc12` (centres unmarked) [Hydroxychloroquine Sulfate, hydroxychloroquine sulfate], for which the IC50 was found to be 3.19 µM with IL-10 (stimulant TLR4-L 10 μg/ml); 1.11 µM in the series on IL-10 (stimulant TLR7-L 5 μg/ml); 3.3 µM with IL-10 (stimulant TLR9-L 1 μM); 32 µM with IL-1β (stimulant TLR4-L 10 μg/ml); 41.6 µM in the series with IL-1β (stimulant TLR9-L 1 μM); 18.2 µM in the series on IgG (stimulant TLR4-L 10 μg/ml). Moreover, the IC50 in the series on IgG (stimulant TLR7-L 5 μg/ml) was 26.9 µM; in the series on IgG (stimulant TLR9-L 1 μM), 5.63 µM; with IL-6 [2] (stimulant TLR4-L 10 μg/ml) it was 15.3 µM; in the series with IL-6 [2] (stimulant TLR7-L 5 μg/ml), 1.91 µM; in the series with IL-6 [2] (stimulant TLR9-L 1 μM) it was 3.92 µM; with IgM, over 8 µM. Further, the IC50 in the series with IL-6 [3] was over 8 µM; in series [4] (listed as Hydroxychloroquine Sulfate (Zhongxi Sunve)), 14.9 µM; in series [4] (Mus musculus, Lymphocyte), 14.9 µM. The molecule also registered a CC50 in series [1] of 26.9 µM.

Usually IC50 stands for the point on the concentration scale where inhibition reaches its midpoint. In general, CC50 refers to the concentration that lowers cell viability or growth by half. A higher CC50 goes with lower toxicity to the cells.
